Results as given in ChEMBL document CHEMBL1141502, “Synthesis of hybrid acetogenins, alpha,beta-unsaturated-gamma-lactone-free nitrogen-containing heterocyclic analogues, and their cytotoxicity against human cancer cell lines” (2008).

Key:
Format in all cases: functional
[1] = Antiproliferative activity against human HBC4 cells by sulforhodamine B assay relative to control
[2] = Antiproliferative activity against human BSY1 cells by sulforhodamine B assay relative to control; settings: BSY-1
[3] = Antiproliferative activity against human HBC5 cells by sulforhodamine B assay relative to control
MCF7 = assay: Antiproliferative activity against human MCF7 cells by sulforhodamine B assay relative to control
MDA-MB-231 = assay: Antiproliferative activity against human MDA-MB-231 cells by sulforhodamine B assay relative to control
U-251 = assay: Antiproliferative activity against human U251 cells by sulforhodamine B assay relative to control
SF-268 = assay: Antiproliferative activity against human SF268 cell by sulforhodamine B assay relative to control
SF-295 = assay: Antiproliferative activity against human SF295 cells by sulforhodamine B assay relative to control
SF-539 = assay: Antiproliferative activity against human SF539 cells by sulforhodamine B assay relative to control
SNB-75 = assay: Antiproliferative activity against human SNB75 cells by sulforhodamine B assay relative to control
SNB-78 = assay: Antiproliferative activity against human SNB78 cells by sulforhodamine B assay relative to control
HCC 2998 = assay: Antiproliferative activity against human HCC2998 cells by sulforhodamine B assay relative to control
KM12 = assay: Antiproliferative activity against human KM12 cells by sulforhodamine B assay relative to control
HT-29 = assay: Antiproliferative activity against human HT29 cells by sulforhodamine B assay relative to control
HCT-15 = assay: Antiproliferative activity against human HCT15 cells by sulforhodamine B assay relative to control
HCT-116 = assay: Antiproliferative activity against human HCT116 cells by sulforhodamine B assay relative to control
NCI-H23 = assay: Antiproliferative activity against human NCI-H23 cells by sulforhodamine B assay relative to control
NCI-H226 = assay: Antiproliferative activity against human NCI-H226 cells by sulforhodamine B assay relative to control
NCI-H522 = assay: Antiproliferative activity against human NCI-H522 cells by sulforhodamine B assay relative to control
NCI-H460 = assay: Antiproliferative activity against human NCI-H460 cells by sulforhodamine B assay relative to control
A549 = assay: Antiproliferative activity against human A549 cells by sulforhodamine B assay relative to control
DMS-273 = assay: Antiproliferative activity against human DMS273 cells by sulforhodamine B assay relative to control
DMS-114 = assay: Antiproliferative activity against human DMS114 cells by sulforhodamine B assay relative to control
LOX IMVI = assay: Antiproliferative activity against human LOX IMVI cells by sulforhodamine B assay relative to control
[4] = Antiproliferative activity against human OVACR3 cells by sulforhodamine B assay relative to control
[5] = Antiproliferative activity against human OVACR4 cells by sulforhodamine B assay relative to control
[6] = Antiproliferative activity against human OVACR5 cells by sulforhodamine B assay relative to control
[7] = Antiproliferative activity against human OVACR8 cells by sulforhodamine B assay relative to control
SK-OV-3 = assay: Antiproliferative activity against human SKOV3 cells by sulforhodamine B assay relative to control
[8] = Antiproliferative activity against human RXF631L cells by sulforhodamine B assay relative to control; settings: RXF 631
ACHN = assay: Antiproliferative activity against human ACHN cells by sulforhodamine B assay relative to control
St-4 = assay: Antiproliferative activity against human St4 cells by sulforhodamine B assay relative to control
[9] = Antiproliferative activity against human MKN1 cells by sulforhodamine B assay relative to control; settings: MKN-1
MKN-7 = assay: Antiproliferative activity against human MKN7 cells by sulforhodamine B assay relative to control
MKN-28 = assay: Antiproliferative activity against human MKN28 cells by sulforhodamine B assay relative to control
MKN-45 = assay: Antiproliferative activity against human MKN45 cells by sulforhodamine B assay relative to control
MKN-74 = assay: Antiproliferative activity against human MKN74 cells by sulforhodamine B assay relative to control
DU-145 = assay: Antiproliferative activity against human DU145 cells by sulforhodamine B assay relative to control
PC-3 = assay: Antiproliferative activity against human PC3 cells by sulforhodamine B assay relative to control

GI50 (MCF7) | GI50 (MDA-MB-231) | GI50 (U-251) | GI50 (HCC 2998) | GI50 (HT-29) | GI50 (HCT-15) | GI50 (HCT-116) | GI50 (NCI-H23) | GI50 (NCI-H226) | GI50 (NCI-H522) | GI50 (NCI-H460) | Structure (SMILES) | GI50 [1] | GI50 [2] | GI50 [3] | GI50 (SF-268) | GI50 (SF-295) | GI50 (SF-539) | GI50 (SNB-75) | GI50 (SNB-78) | GI50 (KM12) | also measured
34 µM | > 100 µM | 61 µM | 28 µM | 33 µM | 47 µM | 28 µM | 11 µM | 22 µM | 13 µM | 40 µM | CCCCCCCCCCCC[C@@H](O)[C@H]1CC[C@H]([C@H](O)CCCCCCCCCCCCc2cncnc2)O1 | 56 µM | 34 µM | 17 µM | 49 µM | 25 µM | 28 µM | 28 µM | 52 µM | 36 µM | GI50 (A549): 42 µM; GI50 (DMS-273): 28 µM; GI50 (DMS-114): 4.1 µM; GI50 (LOX IMVI): 16 µM; GI50 [4]: 29 µM; GI50 [5]: 22 µM; GI50 [6]: > 100 µM; GI50 [7]: 29 µM; GI50 (SK-OV-3): 33 µM; GI50 [8]: > 43 µM; GI50 (ACHN): 40 µM; GI50 (St-4): 39 µM; GI50 [9]: 32 µM; GI50 (MKN-7): 6.1 µM; GI50 (MKN-28): 13 µM; GI50 (MKN-45): 50 µM; GI50 (MKN-74): 38 µM; GI50 (DU-145): 90 µM; GI50 (PC-3): 35 µM
27 µM | 32 µM | > 100 µM | 80 µM | 76 µM | > 100 µM | 9.2 µM | 0.91 µM | 52 µM | 3.8 µM | > 100 µM | CCCCCCCCCCCC[C@@H](O)[C@H]1CC[C@H]([C@H](O)CCCCCCCCCCCCc2ccnn2C)O1 | > 100 µM | 32 µM | 69 µM | > 100 µM | 24 µM | 37 µM | > 100 µM | > 100 µM | 71 µM | GI50 (A549): 31 µM; GI50 (DMS-273): 49 µM; GI50 (DMS-114): 0.55 µM; GI50 (LOX IMVI): > 100 µM; GI50 [4]: > 100 µM; GI50 [5]: 37 µM; GI50 [6]: > 100 µM; GI50 [7]: > 100 µM; GI50 (SK-OV-3): 77 µM; GI50 [8]: > 100 µM; GI50 (ACHN): 88 µM; GI50 (St-4): 65 µM; GI50 [9]: > 100 µM; GI50 (MKN-7): 6.2 µM; GI50 (MKN-28): 4.4 µM; GI50 (MKN-45): > 100 µM; GI50 (MKN-74): 23 µM; GI50 (DU-145): > 100 µM; GI50 (PC-3): > 100 µM
> 100 µM | > 100 µM | > 100 µM | > 100 µM | > 100 µM | > 100 µM | 70 µM | 13 µM | 56 µM | 12 µM | > 100 µM | CCCCCCCCCCCC[C@@H](O)[C@H]1CC[C@H]([C@H](O)CCCCCCCCCCCCc2cnn(C)c2)O1 | > 100 µM | > 100 µM | > 100 µM | > 100 µM | 24 µM | 37 µM | 23 µM | 81 µM | > 100 µM | GI50 (A549): > 100 µM; GI50 (DMS-273): > 100 µM; GI50 (DMS-114): 2.1 µM; GI50 (LOX IMVI): 9.5 µM; GI50 [4]: > 100 µM; GI50 [5]: > 100 µM; GI50 [6]: > 100 µM; GI50 [7]: > 100 µM; GI50 (SK-OV-3): > 100 µM; GI50 [8]: > 100 µM; GI50 (ACHN): > 100 µM; GI50 (St-4): > 100 µM; GI50 [9]: > 100 µM; GI50 (MKN-7): 5.4 µM; GI50 (MKN-28): 19 µM; GI50 (MKN-45): > 100 µM; GI50 (MKN-74): > 100 µM; GI50 (DU-145): > 100 µM; GI50 (PC-3): > 100 µM
79 µM | > 100 µM | > 100 µM | > 100 µM | > 100 µM | > 100 µM | > 100 µM | 28 µM | 30 µM | 17 µM | > 100 µM | CCCCCCCCCCCC[C@@H](O)[C@H]1CC[C@H]([C@H](O)CCCCCCCCCCCCc2ncccn2)O1 | > 100 µM | > 100 µM | 50 µM | > 100 µM | > 100 µM | 41 µM | 32 µM | > 100 µM | > 100 µM | GI50 (A549): > 100 µM; GI50 (DMS-273): 92 µM; GI50 (DMS-114): 16 µM; GI50 (LOX IMVI): 12 µM; GI50 [4]: > 100 µM; GI50 [5]: 38 µM; GI50 [6]: > 100 µM; GI50 [7]: > 100 µM; GI50 (SK-OV-3): 74 µM; GI50 [8]: > 100 µM; GI50 (ACHN): > 100 µM; GI50 (St-4): > 100 µM; GI50 [9]: > 100 µM; GI50 (MKN-7): 27 µM; GI50 (MKN-28): 48 µM; GI50 (MKN-45): > 100 µM; GI50 (MKN-74): 69 µM; GI50 (DU-145): > 100 µM; GI50 (PC-3): > 68 µM
> 100 µM | > 100 µM | > 100 µM | 89 µM | 90 µM | > 100 µM | > 100 µM | 36 µM | 44 µM | 22 µM | > 100 µM | CCCCCCCCCCCC[C@@H](O)[C@H]1CC[C@H]([C@H](O)CCCCCCCCCCCCc2cnc(N)nc2)O1 | > 100 µM | > 100 µM | > 100 µM | > 100 µM | 56 µM | 62 µM | 27 µM | > 100 µM | > 100 µM | GI50 (A549): > 100 µM; GI50 (DMS-273): > 100 µM; GI50 (DMS-114): 4.8 µM; GI50 (LOX IMVI): 58 µM; GI50 [4]: > 100 µM; GI50 [5]: > 100 µM; GI50 [6]: > 100 µM; GI50 [7]: 90 µM; GI50 (SK-OV-3): 56 µM; GI50 [8]: > 100 µM; GI50 (ACHN): > 100 µM; GI50 (St-4): > 100 µM; GI50 [9]: > 100 µM; GI50 (MKN-7): 9.4 µM; GI50 (MKN-28): 40 µM; GI50 (MKN-45): > 100 µM; GI50 (MKN-74): > 100 µM; GI50 (DU-145): > 100 µM; GI50 (PC-3): > 100 µM

Structure (SMILES) | GI50 (MCF7) | GI50 (MDA-MB-231) | GI50 (U-251) | GI50 (HCC 2998) | GI50 (HT-29) | GI50 (HCT-15) | GI50 (HCT-116) | GI50 (NCI-H23) | GI50 (NCI-H226) | GI50 (NCI-H522) | GI50 (NCI-H460) | GI50 [1] | GI50 [2] | GI50 [3] | GI50 (SF-268) | GI50 (SF-295) | GI50 (SF-539) | GI50 (SNB-75) | GI50 (SNB-78) | GI50 (KM12) | also measured
CCCCCCCCCCCC[C@@H](O)[C@H]1CC[C@H]([C@H](O)CCCCCCCCCCCCC2=C[C@H](C)OC2=O)O1 [REL-SOLAMIN] | 71 µM | > 100 µM | > 100 µM | > 100 µM | > 100 µM | > 100 µM | > 100 µM | 73 µM | > 100 µM | 58 µM | > 100 µM | > 100 µM | > 100 µM | > 100 µM | > 100 µM | 40 µM | > 100 µM | > 100 µM | > 100 µM | > 100 µM | GI50 (A549): > 100 µM; GI50 (DMS-273): > 100 µM; GI50 (DMS-114): 4.3 µM; GI50 (LOX IMVI): 29 µM; GI50 [4]: > 100 µM; GI50 [5]: > 100 µM; GI50 [6]: > 100 µM; GI50 [7]: > 100 µM; GI50 (SK-OV-3): > 100 µM; GI50 [8]: > 100 µM; GI50 (ACHN): > 100 µM; GI50 (St-4): > 100 µM; GI50 [9]: > 100 µM; GI50 (MKN-7): 13 µM; GI50 (MKN-28): 14 µM; GI50 (MKN-45): > 100 µM; GI50 (MKN-74): > 100 µM; GI50 (DU-145): > 100 µM; GI50 (PC-3): > 100 µM
